This passage reports Ki results from BindingDB's records for doi:10.1124/jpet.301.2.661 (University of Arkansas, 2002).

The assay addresses Delta-type opioid receptor (Homo sapiens, UniProt P41143).

pKi: −log10 of the molar value. Several values for one entry are separate records, joined by “and”; a condition that tells them apart may be missing. Equal entries are not always repeated. Square brackets hold non-standard residues; d marks the D form. Peptide text beside a SMILES is read from it. * marks the point of attachment. Tyr(Nα,Nα-allyl2) = C=CCN(CC=C)[C@@H](Cc1ccc(O)cc1)C(=O)*; Tic = O=C(O)[C@@H]1Cc2ccccc2CN1; Aib = CC(C)(N)C(=O)O

Chain of Delta-type opioid receptor (P41143 whole entry): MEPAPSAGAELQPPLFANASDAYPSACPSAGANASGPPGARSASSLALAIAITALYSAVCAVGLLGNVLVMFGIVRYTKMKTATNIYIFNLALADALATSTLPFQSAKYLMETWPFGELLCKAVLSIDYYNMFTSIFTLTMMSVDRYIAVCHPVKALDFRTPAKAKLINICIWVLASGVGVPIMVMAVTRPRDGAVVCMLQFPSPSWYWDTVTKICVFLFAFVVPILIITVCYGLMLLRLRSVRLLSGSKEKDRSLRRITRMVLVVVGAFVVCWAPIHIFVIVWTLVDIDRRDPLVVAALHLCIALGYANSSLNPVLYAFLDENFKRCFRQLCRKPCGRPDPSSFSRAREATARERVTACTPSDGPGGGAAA

On to `N[C@@H](Cc1ccc(O)cc1)C(=O)N1Cc2ccccc2C[C@H]1C(=O)N[C@@H](Cc1ccccc1)C(=O)N[C@@H](Cc1ccccc1)C(=O)O` [TIPP] (H-Y[Tic]FF-OH), for which the negative logarithm of the Ki (pKi) is 8.24 and 8.52.

For the compound `C=CCN(CC=C)[C@@H](Cc1ccc(O)cc1)C(=O)NC(C)(C)C(=O)NC(C)(C)C(=O)N[C@@H](Cc1ccccc1)C(=O)N[C@@H](CC(C)C)C(=O)O` [NSC_107691] ({Tyr(Nα,Nα-allyl2)}-[Aib][Aib]FL-OH), the pKi was 6.52.
